The molecules below were run against human A1 receptor subtype (Homo sapiens, UniProt P30542) (assay: not given). Conditions: Table 15, Adenosine A1 Receptor Selective Compounds.
Chain of human A1 receptor subtype (P30542 whole entry): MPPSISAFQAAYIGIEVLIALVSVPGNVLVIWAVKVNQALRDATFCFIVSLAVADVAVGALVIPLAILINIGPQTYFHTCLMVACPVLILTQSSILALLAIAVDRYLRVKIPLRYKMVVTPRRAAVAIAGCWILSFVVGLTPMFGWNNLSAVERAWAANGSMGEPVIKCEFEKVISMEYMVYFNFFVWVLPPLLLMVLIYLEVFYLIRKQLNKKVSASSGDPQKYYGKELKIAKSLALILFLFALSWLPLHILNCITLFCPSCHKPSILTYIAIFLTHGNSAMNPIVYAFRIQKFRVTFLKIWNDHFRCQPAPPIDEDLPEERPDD

With `CNC(=O)NCCNc1nc(-c2cccc(Cl)c2)nc2[nH]ccc12` [Compound 1502] as the molecule, how does the “Ki-A1 (selectivity versus other three subtypes)” value read?
Its value is “* (at least 10 times more selective than other three subtypes.)”.

For `CC(=O)NCCNc1nc(-c2ccccc2)nc2[nH]ccc12` [Compound 1501], which “Ki-A1 (selectivity versus other three subtypes)” value is on record?
Its value is “* (at least 10 times more selective than other three subtypes.)”.

With `CNC(=O)NC1CCCCC1Nc1nc(-c2ccccc2)nc2[nH]c(C)c(C)c12` (centres unmarked) [Compound 1500] as the molecule, how does the “Ki-A1 (selectivity versus other three subtypes)” value read?
The value was “* (at least 10 times more selective than other three subtypes.)”.

How did the “Ki-A1 (selectivity versus other three subtypes)” value turn out when `O[C@H]1CC[C@H](Nc2nc(-c3ccccc3)nc3[nH]c(CN4CCOCC4)cc23)CC1` [Compound 1503] was run?
The value was “* (at least 10 times more selective than other three subtypes.)”.

For `O[C@H]1CC[C@H](Nc2nc(-c3ccccc3)nc3[nH]c(CN4CCSCC4)cc23)CC1` [Compound 1504], which “Ki-A1 (selectivity versus other three subtypes)” value is on record?
Its value is “* (at least 10 times more selective than other three subtypes.)”.

Same assay, conditions: read-out: Al Binding Ki; Table 6, Effect of N6-Substituent

With `Cc1[nH]c2nc(-c3ccccc3)nc(NC3CCC(OC(=O)c4ccccc4)CC3)c2c1C` (centres unmarked) [Compound 611] as the molecule, how does the Ki read?
Its Ki is 0.786 µM.

With `Cc1[nH]c2nc(-c3ccccc3)nc(NC3CCC(NS(C)(=O)=O)CC3)c2c1C` (centres unmarked) [Compound 604] as the molecule, how does the Ki read?
The Ki was greater than 0.01 µM.

How did the Ki turn out when `Cc1[nH]c2nc(-c3ccccc3)nc(N[C@@H]3C[C@@H](O)[C@@H](O)C3)c2c1C` [Compound 616] was run?
Its Ki is 0.0343 µM.

Same assay, conditions: read-out: Al Binding Ki; Table 7, Effect of C2-Substituent

With `Cc1[nH]c2nc(-c3ccccc3F)nc(N[C@H]3CC[C@H](O)CC3)c2c1C` [Compound 709] as the molecule, how does the Ki read?
Its Ki is 0.0487 µM.

Which Ki does the source give for `Cc1[nH]c2nc(C(C)C)nc(N[C@H]3CC[C@H](O)CC3)c2c1C` [Compound 708] here?
Its Ki is 2.15 µM.

Same assay, conditions: saturation and competition radio ligand binding

For `NC(=O)C1CCCN1c1nc(-c2ccccc2)nc2[nH]c(COCC(=O)O)cc12` (centres unmarked) [Compound 1519, [4-(2-Carbamoyl-pyrrolidin-1-yl) -2-phenyl-7H-pyrrolo[2,3-d]pyrimidin-6-ylmethoxy]-acetic acid], which “A1 receptor binding affinity compared with reference compounds 1318 or 1319” value is on record?
The value was “equaled or surpassed”.

For `COCc1cc2c(N3CCC[C@H]3C(N)=O)nc(-c3ccccc3)nc2[nH]1` [Compound 1507], which “A1 receptor binding affinity compared with reference compounds 1318 or 1319” value is on record?
The value was “equaled or surpassed”.

How did the “A1 receptor binding affinity compared with reference compounds 1318 or 1319” value turn out when `NC(=O)COCc1cc2c(N3CCC[C@H]3C(N)=O)nc(-c3ccccc3)nc2[nH]1` [Compound 1510] was run?
Its value is “equaled or surpassed”.

Which “A1 receptor binding affinity compared with reference compounds 1318 or 1319” value does the source give for `NC(=O)[C@@H]1CCCN1c1nc(-c2ccccc2)nc2[nH]ccc12` [Compound 1506] here?
The value was “equaled or surpassed”.

Which “A1 receptor binding affinity compared with reference compounds 1318 or 1319” value does the source give for “1-[6-(4-Hydroxy-4-phenyl-piperidin-1-yl-methyl)-2-phenyl-7H-pyrrolo[2,3-d]pyrimidin-4-yl]-pyrrolidine-2-carboxylic acid amide [Compound 1505]” here?
Its value is “equaled or surpassed”.

How did the “A1 receptor binding affinity compared with reference compounds 1318 or 1319” value turn out when `NC(=O)c1cc2c(NC3CCC(O)CC3)nc(-c3ccccc3)nc2[nH]1` (centres unmarked) [Compound 1520, 4-(4-Hydroxy-cyclohexylamino)-2-phenyl-7H-pyrrolo[2,3-d]pyrimidine-6-carboxylic acid amide] was run?
Its value is “equaled or surpassed”.

With `NC(=O)C1CCCN1c1nc(-c2ccccc2)nc2[nH]c(C(=O)O)cc12` (centres unmarked) [Compound 1511, [4-(2-Carbamoylpyrrolidin-1-yl)-2-phenyl-7H-pyrrolo[2,3-d]pyrimidine-6-carboxylic acid]] as the molecule, how does the “A1 receptor binding affinity compared with reference compounds 1318 or 1319” value read?
The value was “equaled or surpassed”.

Which “A1 receptor binding affinity compared with reference compounds 1318 or 1319” value does the source give for `COC(=O)COCc1cc2c(N3CCCC3C(N)=O)nc(-c3ccccc3)nc2[nH]1` (centres unmarked) [Compound 1518, [4-(2-Carbamoyl-pyrrolidin-1-yl) -2-phenyl-7H-pyrrolo[2,3-d]pyrimidin-6-ylmethoxy]-acetic acid methyl ester] here?
The value was “equaled or surpassed”.

How did the “A1 receptor binding affinity compared with reference compounds 1318 or 1319” value turn out when `OC1CCC(Nc2nc(-c3ccccc3)nc3[nH]c(Cn4ccnc4)cc23)CC1` (centres unmarked) [Compound 1514, 4-(6-Imidazol-1-ylmethyl-2-phenyl-7H-pyrrolo[2,3-d]pyrimidin-4-ylamino)-cyclohexanol] was run?
Its value is “equaled or surpassed”.

How did the “A1 receptor binding affinity compared with reference compounds 1318 or 1319” value turn out when `NC(=O)C1CCCN1c1nc(-c2ccccc2)nc2[nH]c(COCCO)cc12` (centres unmarked) [Compound 1513, 1-[6-(2-Hydroxy-ethoxymethyl) -2-phenyl-7H-pyrrolo[2,3-d]pyrimidin-4-yl]-pyrrolidine-2-carb oxylic acid amide] was run?
Its value is “equaled or surpassed”.

With `COC(=O)c1cc2c(NC3CCC(O)CC3)nc(-c3ccccc3)nc2[nH]1` (centres unmarked) [Compound 1517, 4-(4-Hydroxy-cyclohexylamino) -2-phenyl-7H-pyrrolo[2,3-d]pyrimidine-6-carboxylic acid methyl ester] as the molecule, how does the “A1 receptor binding affinity compared with reference compounds 1318 or 1319” value read?
Its value is “equaled or surpassed”.

For `NC(=O)C1CC(O)CN1c1nc(-c2ccccc2)nc2[nH]ccc12` (centres unmarked) [Compound 1508, 4-Hydroxy-1-(2-phenyl-7H-pyrrolo[2,3-d]pyrimidin-4-yl]-pyrrolidine-2-carboxylic acid amide], which “A1 receptor binding affinity compared with reference compounds 1318 or 1319” value is on record?
Its value is “equaled or surpassed”.

For `OCCOCc1cc2c(N[C@H]3CC[C@H](O)CC3)nc(-c3ccccc3)nc2[nH]1` [Compound 1516], which “A1 receptor binding affinity compared with reference compounds 1318 or 1319” value is on record?
Its value is “equaled or surpassed”.

With `NC(=O)[C@@H]1CCCN1c1nc(-c2ccccc2)nc2[nH]c(CCC(=O)O)cc12` [Compound 1509, 3-[4-((S)-2-Carbamoyl-pyrrolodin-1-yl)-2-phenyl-7H-pyrrolo[2,3-d]pyrimidin-6-yl]-propionic acid] as the molecule, how does the “A1 receptor binding affinity compared with reference compounds 1318 or 1319” value read?
The value was “equaled or surpassed”.

With `Cc1cc2c(N3CCC[C@H]3C(N)=O)nc(-c3ccccc3)nc2[nH]1` [Compound 1512, 1-(6-methyl-2-phenyl-7H-pyrrolo[2,3-d]pyrimidine-4-yl)-(S)-pyrrolidine-2-carboxylic acid amide] as the molecule, how does the “A1 receptor binding affinity compared with reference compounds 1318 or 1319” value read?
Its value is “equaled or surpassed”.

Each molecule was assayed against T1, human A3 receptor subtype (Homo sapiens, UniProt P0DMS8) (assay: Adenosine 3 receptor competition radioligand binding, [125I] AB-MECA, HEK293 membranes). Conditions: Table 17, Adenosine A3 Receptor Selective Compounds.
T1 sequence (P0DMS8 1-318): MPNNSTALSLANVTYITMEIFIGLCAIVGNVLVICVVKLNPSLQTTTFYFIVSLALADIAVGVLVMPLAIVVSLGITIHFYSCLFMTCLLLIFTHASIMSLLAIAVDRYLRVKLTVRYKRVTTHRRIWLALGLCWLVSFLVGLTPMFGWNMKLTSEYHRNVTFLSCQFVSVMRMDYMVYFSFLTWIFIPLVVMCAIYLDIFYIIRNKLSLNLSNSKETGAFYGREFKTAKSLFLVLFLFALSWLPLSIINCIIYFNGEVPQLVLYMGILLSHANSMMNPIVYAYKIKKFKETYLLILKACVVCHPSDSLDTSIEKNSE

`CCN(CC)C(=O)NCCNc1nc(-c2ccccc2)nc2[nH]c(C)c(C)c12` [Compound 1701] was tested. Which “Ki-A3 (selectivity versus other three subtypes)” value did it give?
Its value is “* (at least 10 times more selective than other three subtypes.)”.

With `O=C1NCCN1CCNc1nc(-c2ccccc2)nc2[nH]c(-c3ccccc3)cc12` [Compound 1708] as the molecule, how does the “Ki-A3 (selectivity versus other three subtypes)” value read?
Its value is “* (at least 10 times more selective than other three subtypes.)”.

With `O=C(NCCNc1nc(-c2ccccc2)nc2[nH]ccc12)c1ccc[nH]1` [Compound 1707] as the molecule, how does the “Ki-A3 (selectivity versus other three subtypes)” value read?
Its value is “* (at least 10 times more selective than other three subtypes.)”.

How did the “Ki-A3 (selectivity versus other three subtypes)” value turn out when `NC(=O)C(Cc1ccccc1)Nc1nc(-c2ccccc2)nc2[nH]c(-c3ccccc3)cc12` (centres unmarked) [Compound 1710] was run?
The value was “* (at least 10 times more selective than other three subtypes.)”.

`COC(=O)CC1CCN(c2nc(-c3ccccc3)nc3[nH]c(COc4cccc(Cl)c4)cc23)C1` (centres unmarked) [Compound 1716] was tested. Which “Ki-A3 (selectivity versus other three subtypes)” value did it give?
Its value is “* (at least 10 times more selective than other three subtypes.)”.

For `OCC1CN(c2nc(-c3ccccc3)nc3[nH]ccc23)C1` [Compound 1711], which “Ki-A3 (selectivity versus other three subtypes)” value is on record?
Its value is “* (at least 10 times more selective than other three subtypes.)”.

For `CC(=S)NCCNc1nc(-c2ccccc2)nc2[nH]c(C)c(C)c12` [Compound 1702], which “Ki-A3 (selectivity versus other three subtypes)” value is on record?
The value was “* (at least 10 times more selective than other three subtypes.)”.

For `CC(C)C(Nc1nc(-c2ccccc2)nc2[nH]c(-c3ccccc3)cc12)C(N)=O` (centres unmarked) [Compound 1709], which “Ki-A3 (selectivity versus other three subtypes)” value is on record?
Its value is “* (at least 10 times more selective than other three subtypes.)”.

How did the “Ki-A3 (selectivity versus other three subtypes)” value turn out when `CC(=O)NCCNc1nc(-c2ccccc2)nc2[nH]c(CN3CCC[C@H]3CNc3ccccc3)cc12` [Compound 1713] was run?
Its value is “* (at least 10 times more selective than other three subtypes.)”.

For `OCC1CCCN(c2nc(-c3ccccc3)nc3[nH]c(COc4cccc(Cl)c4)cc23)C1` (centres unmarked) [Compound 1718], which “Ki-A3 (selectivity versus other three subtypes)” value is on record?
Its value is “* (at least 10 times more selective than other three subtypes.)”.

With `Clc1cccc(OCc2cc3c(NCCc4ccc[nH]4)nc(-c4ccccc4)nc3[nH]2)c1` [Compound 1712] as the molecule, how does the “Ki-A3 (selectivity versus other three subtypes)” value read?
The value was “* (at least 10 times more selective than other three subtypes.)”.

Which “Ki-A3 (selectivity versus other three subtypes)” value does the source give for `OC1CCC(Nc2nc(-c3ccccc3)nc3[nH]ccc23)C1` (centres unmarked) [Compound 1706] here?
The value was “* (at least 10 times more selective than other three subtypes.)”.

Which “Ki-A3 (selectivity versus other three subtypes)” value does the source give for `Cc1[nH]c2nc(-c3ccccc3)nc(NC3CCC(OC(=O)CN)C3)c2c1C` (centres unmarked) [Compound 1705] here?
The value was “* (at least 10 times more selective than other three subtypes.)”.

With `CCNC(=O)NCCCNc1nc(-c2ccccc2)nc2[nH]c(C)c(C)c12` [Compound 1704] as the molecule, how does the “Ki-A3 (selectivity versus other three subtypes)” value read?
The value was “* (at least 10 times more selective than other three subtypes.)”.

How did the “Ki-A3 (selectivity versus other three subtypes)” value turn out when `CC(=O)NC(CNc1nc(-c2ccccc2)nc2[nH]c(C)c(C)c12)C(C)C` (centres unmarked) [Compound 1700] was run?
Its value is “* (at least 10 times more selective than other three subtypes.)”.

For `NC(=O)CC1CCN(c2nc(-c3ccccc3)nc3[nH]c(COc4cccc(Cl)c4)cc23)C1` (centres unmarked) [Compound 1717], which “Ki-A3 (selectivity versus other three subtypes)” value is on record?
The value was “* (at least 10 times more selective than other three subtypes.)”.

How did the “Ki-A3 (selectivity versus other three subtypes)” value turn out when `OC1CCN(c2nc(-c3ccccc3)nc3[nH]c(-c4ccccc4)cc23)C1` (centres unmarked) [Compound 1703] was run?
Its value is “* (at least 10 times more selective than other three subtypes.)”.

How did the “Ki-A3 (selectivity versus other three subtypes)” value turn out when `CNC(=O)NCCCNc1nc(-c2ccc(Cl)cc2)nc2[nH]ccc12` [Compound 1719] was run?
Its value is “* (at least 10 times more selective than other three subtypes.)”.

Same assay, conditions: competition radio ligand binding

How did the “A3 receptor binding affinity relative to reference compound 1308” value turn out when `c1ccc(-c2nc(NCCc3cnc[nH]3)c3cc[nH]c3n2)cc1` [Compound 1720, [2-(3H-Imidazol-4-yl)-ethyl]-(2-phenyl-7H-pyrrolo[2,3-d]pyrimidin-4-yl)-amine] was run?
Its value is “greater than 10 times”.
